Results from PMC6979384, “Characterization of the plant homeodomain (PHD) reader family for their histone tail interactions” (Epigenetics & Chromatin, 2020).

Assays:
Assay in all cases: Histone peptide microarray
Assay type in all cases: binding, human
TRIM66 (PB) = settings: GST-tagged TRIM66 (PB = PHD + Bromodomain); histone peptide array; arrays performed twice, n of 4
How it was run: (§1)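 Using an optimized microarray protocol, purified GST-tagged PHD fingers were incubated at 0.5 μM on 293 histone peptides with single or multiple modifications, and array signal was recorded as the average of 4 replicates.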

KDM7A = settings: GST-tagged KDM7A; histone peptide array; arrays performed twice, n of 4
How it was run: as §1

ING3 = settings: GST-tagged ING3; histone peptide array; arrays performed twice, n of 4
How it was run: as §1

MORC3 (CW) = settings: GST-tagged MORC3 (CW = CW-type Zn-finger); histone peptide array; arrays performed twice, n of 4
How it was run: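 Steps: express and purify GST-tagged PHD reader; incubate 0.5 μM protein on a peptide microarray (293 histone peptides, single or combined PTMs) following an optimized protocol; average signal across 4 replicates.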

AIRE (PP) = settings: GST-tagged AIRE (PP); histone peptide array; arrays performed twice, n of 4
How it was run: as §1

RAG2 = settings: GST-tagged RAG2; histone peptide array; arrays performed twice, n of 4
How it was run: as §1

DIDO1 = settings: GST-tagged DIDO1; histone peptide array; arrays performed twice, n of 4
How it was run: as §1

ING5 = settings: GST-tagged ING5; histone peptide array; arrays performed twice, n of 4
How it was run: as §1

PHF8 = settings: GST-tagged PHF8; histone peptide array; arrays performed twice, n of 4
How it was run: as §1

TAF3 = settings: GST-tagged TAF3; histone peptide array; arrays performed twice, n of 4
How it was run: as §1

PHF23 = settings: GST-tagged PHF23; histone peptide array; arrays performed twice, n of 4
How it was run: as §1

PHRF1 (RP) = settings: GST-tagged PHRF1 (RP); histone peptide array; arrays performed twice, n of 4
How it was run: as §1

KDM5A (1) = settings: GST-tagged KDM5A (1); histone peptide array; arrays performed twice, n of 4
How it was run: as §1

ING1 = settings: GST-tagged ING1; histone peptide array; arrays performed twice, n of 4
How it was run: as §1

KDM4C (TTP) = settings: GST-tagged KDM4C (TTP = Tandem Tudor domain + PHD); histone peptide array; arrays performed twice, n of 4
How it was run: as §1

CHD5 (PPCC) = settings: GST-tagged CHD5 (PPCC = Dual PHD + Dual Chromodomain); histone peptide array; arrays performed twice, n of 4
How it was run: as §1

PHF21A = settings: GST-tagged PHF21A; histone peptide array; arrays performed twice, n of 4
How it was run: as §1

MLL5 = settings: GST-tagged MLL5; histone peptide array; arrays performed twice, n of 4
How it was run: as §1

CHD4 (PPCC) = settings: GST-tagged CHD4 (PPCC = Dual PHD + Dual Chromodomain); histone peptide array; arrays performed twice, n of 4
How it was run: as §1

ING4 = settings: GST-tagged ING4; histone peptide array; arrays performed twice, n of 4
How it was run: as §1

DPF2 (PPC2W2) = settings: GST-tagged DPF2 (PPC2W2 = Dual PHD + C2W2-type Zn-finger); histone peptide array; arrays performed twice, n of 4
How it was run: as §1

PHF13 = settings: GST-tagged PHF13; histone peptide array; arrays performed twice, n of 4
How it was run: as §1

SP140L = settings: GST-tagged SP140L; histone peptide array; arrays performed twice, n of 4
How it was run: as §1

BPTF (PB) = settings: GST-tagged BPTF (PB = PHD + Bromodomain); histone peptide array; arrays performed twice, n of 4
How it was run: as §1

ING2 = settings: GST-tagged ING2; histone peptide array; arrays performed twice, n of 4
How it was run: as §1

CHD5 (PCC) = settings: GST-tagged CHD5 (PCC = PHD + Dual Chromodomain); histone peptide array; arrays performed twice, n of 4
How it was run: as §1

KDM5B (1) = settings: GST-tagged KDM5B (1); histone peptide array; arrays performed twice, n of 4
How it was run: as §1

KDM5B (3) = settings: GST-tagged KDM5B (3); histone peptide array; arrays performed twice, n of 4
How it was run: as §1

PHF2 = settings: GST-tagged PHF2; histone peptide array; arrays performed twice, n of 4
How it was run: as §1

KDM5A (3) = settings: GST-tagged KDM5A (3); histone peptide array; arrays performed twice, n of 4
How it was run: as §1

BAZ2B = settings: GST-tagged BAZ2B; histone peptide array; arrays performed twice, n of 4
How it was run: as §1

Row | Substance | Array Heatmap signal, TRIM66 (PB) (TRIM66 (PB)) | Array Heatmap signal, KDM7A (KDM7A) | Array Heatmap signal, ING3 (ING3) | Array Heatmap signal, MORC3 (CW) (MORC3 (CW)) | Array Heatmap signal, AIRE (PP) (AIRE (PP)) | Array Heatmap signal, RAG2 (RAG2) | Array Heatmap signal, DIDO1 (DIDO1) | Array Heatmap signal, ING5 (ING5) | Array Heatmap signal, PHF8 (PHF8) | Array Heatmap signal, TAF3 (TAF3) | Array Heatmap signal, PHF23 (PHF23) | Array Heatmap signal, PHRF1 (RP) (PHRF1 (RP)) | Array Heatmap signal, KDM5A (1) (KDM5A (1)) | Array Heatmap signal, ING1 (ING1) | Array Heatmap signal, KDM4C (TTP) (KDM4C (TTP)) | Array Heatmap signal, CHD5 (PPCC) (CHD5 (PPCC)) | Array Heatmap signal, PHF21A (PHF21A) | Array Heatmap signal, MLL5 (MLL5) | Array Heatmap signal, CHD4 (PPCC) (CHD4 (PPCC)) | Array Heatmap signal, ING4 (ING4) | further results
1 | H4K5ac + K12ac: H4 1-23 | 0.6577 | 0.3306 | 0.4957 | 0.4134 | 0.3771 | 0.3116 | 0.8034 | 0.3605 | 0.3854 | 0.366 | 0.5561 | 0.4375 | 0.4472 | 0.5734 | 0.4758 | 0.532 | 0.4826 | 0.6047 | 0.585 | 0.4639 | Array Heatmap signal, DPF2 (PPC2W2) (DPF2 (PPC2W2)): 0.7316; Array Heatmap signal, PHF13 (PHF13): 0.6317; Array Heatmap signal, SP140L (SP140L): 0.3768; Array Heatmap signal, BPTF (PB) (BPTF (PB)): 0.414; Array Heatmap signal, ING2 (ING2): 0.648; Array Heatmap signal, CHD5 (PCC) (CHD5 (PCC)): 0.8553; Array Heatmap signal, KDM5B (1) (KDM5B (1)): 0.6768; Array Heatmap signal, KDM5B (3) (KDM5B (3)): 0.4813; Array Heatmap signal, PHF2 (PHF2): 0.5746; Array Heatmap signal, KDM5A (3) (KDM5A (3)): 0.5097; Array Heatmap signal, BAZ2B (BAZ2B): 0.4409
2 | H4K5ac: H4 1-23 [Peptide H4K5ac] | 0.6888 | 0.3174 | 0.4744 | 0.3392 | 0.3943 | 0.2578 | 0.6701 | 0.3447 | 0.3344 | 0.3079 | 0.5421 | 0.4272 | 0.4372 | 0.5387 | 0.4448 | 0.5269 | 0.436 | 0.5676 | 0.5634 | 0.4388 | Array Heatmap signal, DPF2 (PPC2W2) (DPF2 (PPC2W2)): 0.6533; Array Heatmap signal, PHF13 (PHF13): 0.6012; Array Heatmap signal, SP140L (SP140L): 0.3459; Array Heatmap signal, BPTF (PB) (BPTF (PB)): 0.3451; Array Heatmap signal, ING2 (ING2): 0.5879; Array Heatmap signal, CHD5 (PCC) (CHD5 (PCC)): 0.7301; Array Heatmap signal, KDM5B (1) (KDM5B (1)): 0.6329; Array Heatmap signal, KDM5B (3) (KDM5B (3)): 0.4665; Array Heatmap signal, PHF2 (PHF2): 0.5353; Array Heatmap signal, KDM5A (3) (KDM5A (3)): 0.423; Array Heatmap signal, BAZ2B (BAZ2B): 0.4414
